Earlier results, collected in patent US20080300217A1, “Combination Therapy with Fumaric Acid Esters for the Treatment of Autoimmune and/or Inflammatory Disorders” (ADITECH PHARMA AB, priority 2005, published 2008).

Conditions: pentoxifylline added to the standard Fumaderm treatment; psoriasis patients

**Q.** Which “flush symptoms in patients” value does the source give for CC(=O)CCCCn1c(=O)c2c(ncn2C)n(C)c1=O [pentoxifylline] here?
**A.** Its value is “reduced the flush symptoms in patients”.
